# Like-named read-outs stand apart in the source and are kept apart here.
# What was measured:
# rats = system: rats; set-up: method as in PMID 28962433, PMID 30920876; details: exposures up to 500 mg/kg/day; cited from earlier work
# Liver HFPO-TeA dosimetry = assay type: in vivo, Sprague Dawley rats; details: for 5D Liver Conc.: 5 days of exposure, mean ± SD n=4; for concentration at 5 days: Sprague Dawley, rat, liver, oral, wet weight, individual rats, read-out: Liver Conc.
# Protocol: Whole blood was collected from the retro-orbital plexus under isoflurane anesthesia 2 h following the first dose and by cardiac puncture 24 h after the last dosage. Blood was stored in anticoagulant potassium ethylenediaminetetraacetic acid (K3EDTA)-coated vacutainers, and then processed to isolate plasma via centrifugation. Animals were euthanized via carbon dioxide asphyxiation and subsequent exsanguination. Liver was collected, weighed, cubed, and divided into three aliquots. One aliquot of tissue was flash-frozen in liquid nitrogen and stored at −80 °C for analytical chemistry analyses. The remaining two aliquots were placed in RNALater and frozen for use in the companion transcriptomic study. Liver and plasma samples were received at the U.S. EPA Center for Computational Toxicology and Exposure, Advanced Analytical Chemistry Methods Branch in Research Triangle Park, North Carolina, USA, and stored at −80 °C prior to extraction.
# Information on the chemicals and materials used in the liver plasma HFPO-TeA dosimetry work can be found in Supplementary Text S6 and Table S3. Liver sample preparation was modified from Conley et al.’s work and detailed in Supplementary Text S6 [49]. Briefly, samples were spiked with the internal standard PFHxDA then homogenized in 200 µL of ACN containing 0.1% formic acid. The sample was centrifuged, and the supernatant was transferred. This process was repeated twice more, then stored at −20 °C prior to analysis.
# Liver samples were analyzed using the same analytical assessment procedure as the plasma dosimetry samples. Matrix blanks were analyzed with each sample set. HFPO-TeA was not detected in the blanks above the limit of quantitation (LOQ) of 1.58 µM. Statistical analysis is described in Supplementary Text S3, normalization calculations are described in Supplementary Text S5 [47], and the liver-to-plasma partitioning calculation is outlined in Supplementary Text S7 [32, 50, 51].
# All in vivo results values are reported as mean ± one standard deviation (SD). Statistical evaluation of in vivo data was conducted using a two-way analysis of variance (ANOVA) and Dunnett’s Test, both at α = 0.05 significance level, on GraphPad Prism v9.5.1.
# Support ing Text S4: Plasma Dosimetry Chemicals, Materials, and Analysis Sprague Dawley rodent plasma (pooled, mixed sex) collected with ethylenediaminetetraacetic acid (EDTA) and sterile filtered (0.2 µm) was obtained from BioIVT (Westbury, NY, USA) and stored at -80 °C until use as the control matrix for generating calibration curves and as the matrix blank during plasma sample analysis. The HFPO-TeA (98.97% pure) used for calibration curve preparation was obtained from Oakwood Products Inc. (West Columbia, South Carolina, USA). Unlabeled perfluorohexadecanoic acid (CASRN 67905-19-5 | DTXSID1070800 | PFHxDA; ≥ 98% pure) was obtained from Cambridge Isotope Laboratories (Tewksbury, MA, USA) to serve as the internal standard since a labeled HFPO-TeA standard was not commercially available. […]
# Samples were quantitated against matrix-matched calibration curves containing a minimum of 5 points spanning the range 20 – 80,280 ng/mL plasma. Calibrants were prepared by spiking commercial rat plasma (BioIVT) with HFPO-TeA and PFHxDA and then extracted in the same manner as study samples.
# Support ing Text S5: Normalization of Dosimetry Data Calculations
# Percent dose of HFPO-TeA in plasma was calculated using the observed plasma concentrations and the average plasma volume for Sprague Dawley rats. The density of plasma was then used to convert from mL plasma to grams plasma for ease of comparison to the liver percent dose data. Average percent dose of HFPO-TeA in liver was calculated using the observed liver concentrations and liver weights. These calculations allow for a comparison of the potential saturation of available proteins in […]
# Support ing Text S6: Liver Dosimetry Chemicals, Materials, and Analysis […]
smiles,measurement,setting,value
"O=C(O)C(F)(OC(F)(F)C(F)(F)C(F)(F)F)C(F)(F)F (centres unmarked) [HFPO-DA, perfluoro-2-methyl-3-oxahexanoic acid]",premature mortality,rats,no reported premature mortality
"O=C(O)C(F)(OC(F)(F)C(F)(OC(F)(F)C(F)(OC(F)(F)C(F)(F)C(F)(F)F)C(F)(F)F)C(F)(F)F)C(F)(F)F (centres unmarked) [HFPO-TeA, perfluoro-(2,5,8-trimethyl-3,6,9-trioxadodecanoic) acid]",5D Liver Conc.,"Liver HFPO-TeA dosimetry; 0.9 mg/kg/day, F",14.0 ± 4.3 µM
same,5D Liver Conc.,"Liver HFPO-TeA dosimetry; 2.3 mg/kg/day, F",16.5 ± 12.6 µM
same,5D Liver Conc.,"Liver HFPO-TeA dosimetry; 2.3 mg/kg/day, M",10.3 ± 7.5 µM
same,5D Liver Conc.,"Liver HFPO-TeA dosimetry; 6.3 mg/kg/day, F",86.8 ± 31.7 µM
same,5D Liver Conc.,"Liver HFPO-TeA dosimetry; 6.3 mg/kg/day, M",82.7 ± 10.5 µM
same,5D Liver Conc.,"Liver HFPO-TeA dosimetry; 17 mg/kg/day, F",250 ± 39 µM
same,5D Liver Conc.,"Liver HFPO-TeA dosimetry; 17 mg/kg/day, M",210 ± 85 µM
same,concentration at 5 days,"Liver HFPO-TeA dosimetry; female, 0.9 mg/kg/day, F",9240 ng/g
same,concentration at 5 days,"Liver HFPO-TeA dosimetry; female, 17 mg/kg/day, F",174000 ng/g
same,concentration at 5 days,"Liver HFPO-TeA dosimetry; male, 6.3 mg/kg/day, M",61600 ng/g
